The values below come from patent US20240360134A1, “PYRAZOLOPYRIMIDINES AND THEIR USES AS PDGFR INHIBITORS” (priority 2021, published 2024).

Like-named read-outs stand apart in the source and are kept apart here. Bounds are passed on as bounds.

Assay [1] addresses His6-TEV-PDGFRβ (557-1016) (Homo sapiens (Human), UniProt P09619). Description: PDGFRβ HTRF Assay. In kind it is biochemical. A general note: In TR-FRET formats the signal depends on donor and acceptor labels being close together.
Assay [2] deals with PDGFRβ (Rattus norvegicus (Rat), UniProt Q05030). Description: PDGFRβ Cellular Assay (PDGFRb P-Y751 HTRF, PDGF-BB stimulated A10 cells). In kind it is cell-based. The method in brief: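 Rat A10 cells plated overnight were treated with compound for 3 h, stimulated with rat PDGF-BB (working stock 100 ng/mL in 10% FBS medium) for 10 min, then lysed.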
Assay [3] has as its target Tb-labeled inactive PDGFRβ (Homo sapiens (Human), UniProt P09619). The assay can be described thus: biochemical. It is filed as binding.
In assay [4] the target is VEGFR2, unphosphorylated (Homo sapiens (Human), UniProt P35968). The assay can be described thus: VEGFR ADP GLO assay. The settings on record: 5 nM VEGFR2, 1.2 mM ATP, 1 mg/mL Srctide, 180 min. It is filed as biochemical. The method in brief: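 Unphosphorylated kinase (10 nM 2× solution) pre-incubated 30 min at RT with compounds (11-point, 3-fold, top 10 µM), then reacted 180 min with srctide and ATP (2×: 2 mg/mL, 2.4 mM) in HEPES pH 7.5 buffer. ADP read by luminescence. IC50 from 4-parameter fit, normalized to DMSO and 1 µM TAK-593.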
A general note: ADP-Glo turns the ADP formed in a reaction into a luminescent signal.

Setting [5] is: 800 μM ATP, 0.5 μM TK-substrate biotin peptide, 30 min pre-incubation, 3 hours reaction, read-out: PDGFR HTRF IC50.
The mark [6] stands for this setting: A10 cells, 3 hours compound, 15 ng/mL PDGFbb for 10 minutes, read-out: PDGFR Cellular IC50.

PDGFRβ, sequence (Q05030 whole entry, looked up): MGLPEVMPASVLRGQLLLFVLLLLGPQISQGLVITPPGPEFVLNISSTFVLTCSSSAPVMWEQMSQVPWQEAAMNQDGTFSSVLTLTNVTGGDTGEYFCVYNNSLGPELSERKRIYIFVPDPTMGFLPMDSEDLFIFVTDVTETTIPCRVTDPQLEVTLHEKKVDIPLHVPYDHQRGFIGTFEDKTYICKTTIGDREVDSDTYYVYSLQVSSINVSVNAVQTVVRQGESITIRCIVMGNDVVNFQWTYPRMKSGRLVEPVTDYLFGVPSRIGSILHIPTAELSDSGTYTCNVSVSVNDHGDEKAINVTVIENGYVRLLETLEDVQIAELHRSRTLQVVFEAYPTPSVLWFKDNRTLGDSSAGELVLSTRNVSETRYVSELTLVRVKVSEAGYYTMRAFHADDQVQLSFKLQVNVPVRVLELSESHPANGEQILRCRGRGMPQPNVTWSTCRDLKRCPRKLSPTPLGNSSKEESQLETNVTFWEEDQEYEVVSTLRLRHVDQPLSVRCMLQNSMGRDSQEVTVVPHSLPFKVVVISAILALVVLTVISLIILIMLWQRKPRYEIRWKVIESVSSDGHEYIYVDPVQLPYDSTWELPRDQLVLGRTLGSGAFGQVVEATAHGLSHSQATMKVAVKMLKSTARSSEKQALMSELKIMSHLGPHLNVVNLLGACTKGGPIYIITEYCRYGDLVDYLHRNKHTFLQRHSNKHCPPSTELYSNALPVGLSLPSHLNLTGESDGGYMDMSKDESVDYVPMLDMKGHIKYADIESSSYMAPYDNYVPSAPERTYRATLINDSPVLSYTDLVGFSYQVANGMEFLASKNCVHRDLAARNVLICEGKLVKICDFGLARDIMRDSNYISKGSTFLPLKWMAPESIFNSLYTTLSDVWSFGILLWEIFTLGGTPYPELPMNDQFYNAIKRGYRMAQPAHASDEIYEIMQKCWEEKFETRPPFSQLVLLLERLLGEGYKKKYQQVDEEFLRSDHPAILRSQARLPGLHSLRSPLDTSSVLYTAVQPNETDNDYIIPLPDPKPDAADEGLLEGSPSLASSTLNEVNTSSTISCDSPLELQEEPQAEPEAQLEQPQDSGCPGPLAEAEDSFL
Tb-labeled inactive PDGFRβ, sequence (P09619 whole entry, looked up): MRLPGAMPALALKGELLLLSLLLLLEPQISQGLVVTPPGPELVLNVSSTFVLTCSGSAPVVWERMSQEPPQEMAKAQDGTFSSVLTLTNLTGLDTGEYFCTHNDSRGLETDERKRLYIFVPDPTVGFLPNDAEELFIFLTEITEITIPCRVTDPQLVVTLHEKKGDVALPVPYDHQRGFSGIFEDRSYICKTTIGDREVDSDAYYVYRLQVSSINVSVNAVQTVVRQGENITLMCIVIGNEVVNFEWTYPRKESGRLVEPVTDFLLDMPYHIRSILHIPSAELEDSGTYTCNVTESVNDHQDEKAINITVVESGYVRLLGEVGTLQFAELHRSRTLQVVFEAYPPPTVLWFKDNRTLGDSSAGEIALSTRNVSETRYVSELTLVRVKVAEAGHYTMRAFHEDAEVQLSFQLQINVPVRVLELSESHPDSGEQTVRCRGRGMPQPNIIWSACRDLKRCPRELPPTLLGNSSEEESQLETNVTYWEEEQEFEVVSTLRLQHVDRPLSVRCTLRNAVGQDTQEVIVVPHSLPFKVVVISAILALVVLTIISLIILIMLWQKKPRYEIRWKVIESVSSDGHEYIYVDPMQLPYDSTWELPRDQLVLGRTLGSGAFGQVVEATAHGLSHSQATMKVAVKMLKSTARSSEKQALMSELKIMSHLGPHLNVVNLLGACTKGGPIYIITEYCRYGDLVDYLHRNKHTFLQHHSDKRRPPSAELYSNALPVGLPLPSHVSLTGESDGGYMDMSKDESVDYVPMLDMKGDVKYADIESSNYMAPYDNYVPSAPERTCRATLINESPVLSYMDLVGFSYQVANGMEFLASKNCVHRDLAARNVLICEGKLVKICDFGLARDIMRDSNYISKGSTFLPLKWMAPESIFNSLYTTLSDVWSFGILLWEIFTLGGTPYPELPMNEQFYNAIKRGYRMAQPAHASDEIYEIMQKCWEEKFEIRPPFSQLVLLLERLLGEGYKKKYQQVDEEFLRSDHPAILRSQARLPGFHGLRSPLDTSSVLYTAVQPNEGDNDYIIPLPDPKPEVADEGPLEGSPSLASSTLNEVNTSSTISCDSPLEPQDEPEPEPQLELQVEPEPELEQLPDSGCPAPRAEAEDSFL
His6-TEV-PDGFRβ (557-1016), sequence (P09619 whole entry, looked up): as above
VEGFR2, unphosphorylated, sequence (P35968 whole entry, looked up): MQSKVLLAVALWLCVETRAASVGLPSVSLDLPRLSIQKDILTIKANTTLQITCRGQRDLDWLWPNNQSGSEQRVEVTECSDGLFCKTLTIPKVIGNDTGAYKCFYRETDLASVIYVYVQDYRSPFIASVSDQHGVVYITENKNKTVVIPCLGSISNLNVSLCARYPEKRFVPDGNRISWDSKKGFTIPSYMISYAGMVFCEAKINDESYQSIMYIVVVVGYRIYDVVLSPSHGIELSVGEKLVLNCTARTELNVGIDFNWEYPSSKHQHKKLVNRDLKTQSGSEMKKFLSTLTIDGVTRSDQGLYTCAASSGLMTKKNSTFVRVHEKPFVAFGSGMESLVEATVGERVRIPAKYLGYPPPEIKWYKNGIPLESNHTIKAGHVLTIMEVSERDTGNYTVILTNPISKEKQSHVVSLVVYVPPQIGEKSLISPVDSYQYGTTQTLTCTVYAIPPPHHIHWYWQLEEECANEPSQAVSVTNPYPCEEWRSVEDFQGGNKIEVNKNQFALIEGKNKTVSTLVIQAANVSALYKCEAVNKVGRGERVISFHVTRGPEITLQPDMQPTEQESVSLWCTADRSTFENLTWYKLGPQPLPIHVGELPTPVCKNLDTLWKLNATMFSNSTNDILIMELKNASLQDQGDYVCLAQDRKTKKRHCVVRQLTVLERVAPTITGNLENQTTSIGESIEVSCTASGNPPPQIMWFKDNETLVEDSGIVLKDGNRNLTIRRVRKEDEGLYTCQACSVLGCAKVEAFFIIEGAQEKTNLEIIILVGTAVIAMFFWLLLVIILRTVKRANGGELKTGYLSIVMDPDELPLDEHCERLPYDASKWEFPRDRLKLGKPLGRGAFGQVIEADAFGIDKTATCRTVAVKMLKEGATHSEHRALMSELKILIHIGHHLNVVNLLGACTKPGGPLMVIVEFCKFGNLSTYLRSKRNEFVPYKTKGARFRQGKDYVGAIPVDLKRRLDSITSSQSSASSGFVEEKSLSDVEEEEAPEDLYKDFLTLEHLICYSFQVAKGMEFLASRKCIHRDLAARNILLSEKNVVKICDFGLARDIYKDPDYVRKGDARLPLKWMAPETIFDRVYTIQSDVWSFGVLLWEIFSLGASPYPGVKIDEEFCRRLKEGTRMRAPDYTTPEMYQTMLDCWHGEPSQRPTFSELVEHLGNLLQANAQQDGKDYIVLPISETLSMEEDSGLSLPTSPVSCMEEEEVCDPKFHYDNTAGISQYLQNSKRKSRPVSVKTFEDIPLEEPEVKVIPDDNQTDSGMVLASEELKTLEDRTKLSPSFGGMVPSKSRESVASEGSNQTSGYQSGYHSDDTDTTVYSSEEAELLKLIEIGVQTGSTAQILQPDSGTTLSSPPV

As to `CO[C@@H]1CCN(CC(=O)Nc2cnc(C)c(Nc3nn(C)c4nc(Nc5cnn(C)c5)ncc34)c2)C1` [Example 135, (R)-2-(3-methoxypyrrolidin-1-yl)-N-(6-methyl-5-((1-methyl-6-((1-methyl-1H-pyrazol-4-yl)amino)-1H-pyrazolo[3,4-d]pyrimidin-3-yl)amino)pyridin-3-yl)acetamide], the IC50 (as a rule, the concentration that gives 50% inhibition) is 0.41 nM in assay [1] (setting [5]), 9.5 nM in assay [2] (setting [6]), 2.8 nM in assay [3] (read-out: PDGFR Lantha IC50) and greater than 7500 nM in assay [4].

In the case of `CC(=O)Nc1cccc(Nc2ncc3c(Nc4cc(C(=O)NCCN5CCCC5(C)C)cnc4C)nn(C)c3n2)c1` [Example 98, 5-((6-((3-acetamidophenyl)amino)-1-methyl-1H-pyrazolo[3,4-d]pyrimidin-3-yl)amino)-N-(2-(2,2-dimethylpyrrolidin-1-yl)ethyl)-6-methylnicotinamide], the IC50 in assay [1] (setting [5]) was 1.98 nM; in assay [2] (setting [6]) it was 723 nM; in assay [3] (read-out: PDGFR Lantha IC50), 12 nM; in assay [4] it was greater than 7500 nM.

As for `Cc1ncc(C(=O)NCCN2CCCC23CCC3)cc1Nc1nn(C)c2nc(Nc3cncnc3)ncc12` [Example 4, N-(2-(5-azaspiro[3.4]octan-5-yl)ethyl)-6-methyl-5-((1-methyl-6-(pyrimidin-5-ylamino)-1H-pyrazolo[3,4-d]pyrimidin-3-yl)amino)nicotinamide], the IC50 in assay [1] (setting [5]) is 0.46 nM; in assay [2] (setting [6]), 14.5 nM; in assay [3] (read-out: PDGFR Lantha IC50), 3.2 nM; in assay [4] it was greater than 7500 nM.

For the molecule `Cc1ncc(C(=O)NCCN2CCCC2(C)C)cc1Nc1nn(C)c2nc(Nc3ccnc(N4CCN(CCO)CC4)c3)ncc12` [Example 103, N-(2-(2,2-dimethylpyrrolidin-1-yl)ethyl)-5-((6-((2-(4-(2-hydroxyethyl)piperazin-1-yl)pyridin-4-yl)amino)-1-methyl-1H-pyrazolo[3,4-d]pyrimidin-3-yl)amino)-6-methylnicotinamide], the half-inhibitory concentration (IC50) was 0.55 nM in assay [1] (setting [5]), 443 nM in assay [2] (setting [6]), 4.8 nM in assay [3] (read-out: PDGFR Lantha IC50) and greater than 7500 nM in assay [4].

In the case of `COCCCN(CCNC(=O)c1cnc(C)c(Nc2nn(C)c3nc(Nc4cnn(C)c4)ncc23)c1)C1CCC1` [Example 93, N-(2-(cyclobutyl(3-methoxypropyl)amino)ethyl)-6-methyl-5-((1-methyl-6-((1-methyl-1H-pyrazol-4-yl)amino)-1H-pyrazolo[3,4-d]pyrimidin-3-yl)amino)nicotinamide], the IC50 in assay [1] (setting [5]) was 0.44 nM; in assay [2] (setting [6]), 10.6 nM; in assay [3] (read-out: PDGFR Lantha IC50) it was 3.8 nM; in assay [4], greater than 7500 nM.

Take `Cc1ncc(C(=O)NCCN2CCCC23CCC3)cc1Nc1nn(C)c2nc(Nc3cnn(C)c3)ncc12` [Example 151, N-(2-(5-azaspiro[3.4]octan-5-yl)ethyl)-6-methyl-5-((1-methyl-6-((1-methyl-1H-pyrazol-4-yl)amino)-1H-pyrazolo[3,4-d]pyrimidin-3-yl)amino)nicotinamide]: the IC50 in assay [1] (setting [5]) is 0.29 nM; in assay [2] (setting [6]) it was 4.8 nM; in assay [3] (read-out: PDGFR Lantha IC50), 1.7 nM; in assay [4], 2960 nM.

As for `Cc1ncc(C(=O)NCCN2CCCC2(C)C)cc1Nc1nn(C)c2nc(Nc3cnn(C)n3)ncc12` [Example 40, N-(2-(2,2-dimethylpyrrolidin-1-yl)ethyl)-6-methyl-5-((1-methyl-6-((2-methyl-2H-1,2,3-triazol-4-yl)amino)-1H-pyrazolo[3,4-d]pyrimidin-3-yl)amino)nicotinamide], the IC50 in assay [1] (setting [5]) is 1.22 nM; in assay [2] (setting [6]), 14.1 nM; in assay [3] (read-out: PDGFR Lantha IC50), 13 nM; in assay [4], greater than 7500 nM.

Turning to `Cc1ncc(C(=O)NCCN2CCCC2(C)C)cc1Nc1nn(C)c2nc(Nc3cccnc3)ncc12` [Example 42, N-(2-(2,2-dimethylpyrrolidin-1-yl)ethyl)-6-methyl-5-((1-methyl-6-(pyridin-3-ylamino)-1H-pyrazolo[3,4-d]pyrimidin-3-yl)amino)nicotinamide], the IC50 was 0.6 nM in assay [1] (setting [5]), 33.2 nM in assay [2] (setting [6]), 3.9 nM in assay [3] (read-out: PDGFR Lantha IC50) and greater than 10000 nM in assay [4].

With `Cc1ncc(C(=O)NCCN2C[C@H](C)O[C@@H](C)C2)cc1Nc1nn(C)c2nc(Nc3cnn(C)c3)ncc12` (relative stereo) [Example 92, N-(2-(trans-2,6-dimethylmorpholino)ethyl)-6-methyl-5-((1-methyl-6-((1-methyl-1H-pyrazol-4-yl)amino)-1H-pyrazolo[3,4-d]pyrimidin-3-yl)amino)nicotinamide], the IC50 was found to be 0.69 nM in assay [1] (setting [5]), 22.8 nM in assay [2] (setting [6]), 4.3 nM in assay [3] (read-out: PDGFR Lantha IC50) and 6700 nM in assay [4].

Consider `Cc1ncc(C(=O)NCCN2CCCC2(C)C)cc1Nc1nn(C)c2nc(Nc3cccc(CC(=O)O)c3)ncc12` [Example 44, 2-(3-((3-((5-((2-(2,2-dimethylpyrrolidin-1-yl)ethyl)carbamoyl)-2-methylpyridin-3-yl)amino)-1-methyl-1H-pyrazolo[3,4-d]pyrimidin-6-yl)amino)phenyl)-acetic acid], for which the IC50 turned out to be 1.54 nM in assay [1] (setting [5]), 2660 nM in assay [2] (setting [6]), 9.7 nM in assay [3] (read-out: PDGFR Lantha IC50) and 2190 nM in assay [4].

For `Cc1ncc(C(=O)NCCN2CC3CCC2CC3)cc1Nc1nn(C)c2nc(Nc3cncnc3)ncc12` [Example 6, N-(2-(2-azabicyclo[2.2.2]octan-2-yl)ethyl)-6-methyl-5-((1-methyl-6-(pyrimidin-5-ylamino)-1H-pyrazolo[3,4-d]pyrimidin-3-yl)amino)nicotinamide], the IC50 in assay [1] (setting [5]) is 0.59 nM; in assay [2] (setting [6]), 102 nM; in assay [3] (read-out: PDGFR Lantha IC50), 5.2 nM; in assay [4], greater than 7500 nM.

Regarding `Cc1ncc(C(=O)NCCN2[C@H](C)CCC[C@@H]2C)cc1Nc1nn(C)c2cc(Nc3cnn(C)c3)ncc12` [Example 68, N-(2-((2S,6R)-2,6-dimethylpiperidin-1-yl)ethyl)-6-methyl-5-((1-methyl-6-((1-methyl-1H-pyrazol-4-yl)amino)-1H-pyrazolo[4,3-c]pyridin-3-yl)amino)nicotinamide], the half-inhibitory concentration (IC50) was 1.98 nM in assay [1], 112 nM in assay [2], 33.9 nM in assay [3] and greater than 7500 nM in assay [4].

In the case of `Cn1cc(Nc2ncc3c(Nc4cc(C(=O)NCCN5CCCC5(C)C)ccc4F)nn(C)c3n2)cn1` [Example 121, N-(2-(2,2-dimethylpyrrolidin-1-yl)ethyl)-4-fluoro-3-((1-methyl-6-((1-methyl-1H-pyrazol-4-yl)amino)-1H-pyrazolo[3,4-d]pyrimidin-3-yl)amino)benzamide], the IC50 is 0.2 nM in assay [1] (setting [5]), 3.6 nM in assay [2] (setting [6]), 1.3 nM in assay [3] (read-out: PDGFR Lantha IC50) and greater than 7500 nM in assay [4].

On to `CC[C@@H]1CN(CCNC(=O)c2cnc(C)c(Nc3nn(C)c4nc(Nc5cnn(C)c5)ncc34)c2)CCO1` [Example 88, (R)—N-(2-(2-ethylmorpholino)ethyl)-6-methyl-5-((1-methyl-6-((1-methyl-1H-pyrazol-4-yl)amino)-1H-pyrazolo[3,4-d]pyrimidin-3-yl)amino)nicotinamide], for which the IC50 in assay [1] (setting [5]) was 0.35 nM; in assay [2] (setting [6]), 22.3 nM; in assay [3] (read-out: PDGFR Lantha IC50), 3 nM; in assay [4], greater than 7500 nM.
